The source of these data is US11795460B2, “Compositions and methods for TTR gene editing and treating ATTR amyloidosis” (Intellia Therapeutics, Inc., priority 2017, dated 2023).

Strand notation (5' to 3'): a small letter for the sugar, then the base; units joined by * are phosphorothioate-linked, units joined directly phosphodiester-linked; [ ] holds rarer units or linkages, { } end groups; capitals alone tell only the bases. m = 2'-O-methyl; r = 2'-OH (RNA)

The subject of data set [1] is TTR. Briefly: TTR editing in primary human hepatocytes transfected with Spy Cas9 protein (RNP) loaded with dgRNAs (Table 8). The data set is classed as cell-based. The note with it: dgRNA transfected with Spy Cas9 protein (RNP). In a few lines:
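Primary human hepatocytes were lipofected (RNAiMAX) with RNP of Spy Cas9 (10 nM) plus pre-annealed crRNA (10 nM) and trRNA (10 nM) and harvested 24, 48 or 72 h later. Target-site amplicons were sequenced on Illumina MiSeq and aligned to hg38; percent editing = reads with indels or substitutions over total reads.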

Data set [2] has as its system TTR. Briefly: TTR editing in HepG2 cells transfected with Spy Cas9 mRNA and dgRNAs (Table 6). Format: cell-based, human. The note with it: HepG2 cells co-transfected with Spy Cas9 mRNA (SEQ ID NO:2) and dgRNAs. The method in brief: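 Percent editing is the share of sequencing reads at the TTR target locus that carry insertions, deletions or substitutions, measured by Illumina amplicon sequencing aligned to hg38. Samples came from HepG2 cells lipofected first with 100 ng Cas9 mRNA and then with dual-guide RNA (25 nM crRNA/tracer), collected 24–72 h later.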

Data set [3] has as its system off-target genomic sites. Briefly: Off-target oligo insertion based assay in HEK293_Cas9 cells, dgRNAs and sgRNAs (Tables 23, 24). The data set is classed as cell-based, human. The settings on record: for # Sites (off-target integration sites detected): Table 24, TTR sgRNAs in HekCas9 cells, insertion detection method; for # Sites in HekCas9 cells (Example 5): Table 30, TTR sgRNAs, repeated from Example 5 for comparison. The protocol: An oligo insertion based assay (See, e.g., Tsai et al., Nature Biotechnology 33, 187-197; 2015) was used to determine potential off-target genomic sites cleaved by Cas9 targeting TTR. Forty-five dgRNAs from Table 1 (and two control guides with known off-target profiles) were screened in the HEK293 Cas9 cells. The human embryonic kidney adenocarcinoma cell line HEK293 constitutively expressing Spy Cas9 (“HEK293_Cas9”) was cultured in DMEM media supplemented with 10% fetal bovine serum and 500 μg/ml G418. Cells were plated at a density of 30,000 cells/well in a 96-well plate 24 hours prior to transfection. Cells were transfected with Lipofectamine RNAiMAX (ThermoFisher, Cat. 13778150) per the manufacturer's protocol. Cells were transfected with a lipoplex containing individual crRNA (15 nM), trRNA (15 nM), and donor oligo with (10 nM) Lipofectamine RNAiMAX (0.3 μL/well) and OptiMem. Cells were lysed 24 hours post transfection and genomic DNA was extracting using Zymo's Quick gDNA 96 Extraction kit (catalog #D3012) following the manufacturer's recommended protocol. The gDNA was quantified using the Qubit High Sensitivity dsDNA kit (Life Technologies). Libraries were prepared per the previously described method in Tsai et al, 2015 with minor modifications. Sequencing was performed on Illumina's MiSeq and HiSeq 2500. The assay identified potential off-target sites for some of the crRNAs which are plotted in FIG. 2.
Additionally, a subset of the guides was assessed for off-target potential as modified sgRNAs in the Hek_Cas9 cells via the oligo based insertion method described above. The off-target results were plotted in FIG. 4.

Take “GCUGCAUGGGCUCACAACUG (tested as dual guide RNA, chemistry not given here) [CR003361]”: in data set [1], the “Avg % Deletion” value was determined as 0.56%, the “Avg % Edit” value is on record as 13.08% and the “Avg % Insert” value stood at 12.52%. For the same molecule, in data set [2], the “Avg % Deletion” value was found to be 2.58%, the “Avg % Edit” value is 14.05% and the “Avg % Insert” value is reported as 11.47%.

On to “CUGAGGAGGAAUUUGUAGAA (tested as dual guide RNA, chemistry not given here) [CR003364]”, for which, in data set [1], the “Avg % Deletion” value was determined as 11.36%, the “Avg % Edit” value is listed as 35.29% and the “Avg % Insert” value is listed as 23.93%. In data set [2], the “Avg % Deletion” value is 20.85%, the “Avg % Edit” value is reported as 51.88% and the “Avg % Insert” value turned out to be 31.03%.

For “UACUCACCUCUGCAUGCUCA (tested as dual guide RNA, chemistry not given here) [CR003372]”, in data set [1], the “Avg % Deletion” value came out at 1.81%, the “Avg % Edit” value is 17.56% and the “Avg % Insert” value turned out to be 15.74%. In data set [2], the “Avg % Deletion” value is 2.42%, the “Avg % Edit” value was 14.57% and the “Avg % Insert” value was 12.14%.

For “GCAUGGGCUCACAACUGAGG (tested as dual guide RNA, chemistry not given here) [CR003362]”, in data set [1], the “Avg % Deletion” value turned out to be 0.56%, the “Avg % Edit” value is 11.65% and the “Avg % Insert” value is given as 11.10%. Moreover, in data set [2], the “Avg % Deletion” value was 0.94%, the “Avg % Edit” value is given as 17.44% and the “Avg % Insert” value was 16.50%.

Turning to “CCUCUGCAUGCUCAUGGAAU (tested as dual guide RNA, chemistry not given here) [CR003370]”, in data set [1], the “Avg % Deletion” value is recorded as 1.26%, the “Avg % Edit” value is given as 20.06% and the “Avg % Insert” value is 18.80%. In data set [2], the “Avg % Deletion” value was determined as 3.62%, the “Avg % Edit” value was determined as 28.51% and the “Avg % Insert” value stood at 24.88%.

In the case of “ACCUCUGCAUGCUCAUGGAA (tested as dual guide RNA, chemistry not given here) [CR003371]”, in data set [1], the “Avg % Deletion” value came out at 1.57%, the “Avg % Edit” value is listed as 18.80% and the “Avg % Insert” value came to 17.23%. Moreover, in data set [2], the “Avg % Deletion” value was found to be 1.84%, the “Avg % Edit” value is listed as 15.91% and the “Avg % Insert” value is 14.07%.

Turning to “CUGGUAUUUGUGUCUGAGGC (tested as dual guide RNA, chemistry not given here) [CR003341]”, in data set [1], the “Avg % Deletion” value turned out to be 5.02%, the “Avg % Edit” value worked out at 19.66% and the “Avg % Insert” value is reported as 14.64%. Besides, in data set [2], the “Avg % Deletion” value came to 5.66%, the “Avg % Edit” value came to 15.60% and the “Avg % Insert” value is recorded as 9.94%.

Take “AUGCAGCUCUCCAGACUCAC (tested as dual guide RNA, chemistry not given here) [CR003358]”: in data set [1], the “Avg % Deletion” value is on record as 5.67%, the “Avg % Edit” value stood at 31.62% and the “Avg % Insert” value was found to be 25.95%. In addition, in data set [2], the “Avg % Deletion” value was determined as 7.27%, the “Avg % Edit” value stood at 35.93% and the “Avg % Insert” value stood at 28.66%.

As for “AAUAGGAGUAGGGGCUCAGC (tested as dual guide RNA, chemistry not given here) [CR003384]”, in data set [1], the “Avg % Deletion” value amounted to 0.17%, the “Avg % Edit” value is recorded as 3.56% and the “Avg % Insert” value is 3.39%. Also, in data set [2], the “Avg % Deletion” value is given as 0.25%, the “Avg % Edit” value is recorded as 3.37% and the “Avg % Insert” value worked out at 3.12%.

B1: G000489: TTR sgRNA modified sequence, Human, SEQ ID No. 96; guide sequence of CR003344 (nucleic acid)
guide: mU*mU*mU*rGrArCrCrArUrCrArGrArGrGrArCrArCrUrGrUrUrUrUrArGrAmGmCmUmAmGmAmAmAmUmAmGmCrArArGrUrUrArArArArUrArArGrGrCrUrArGrUrCrCrGrUrUrArUrCrAmAmCmUmUmGmAmAmAmAmAmGmUmGmGmCmAmCmCmGmAmGmUmCmGmGmUmGmCmU*mU*mU*mU
B1: in data set [3], the “# Sites (off-target integration sites detected)” value came to 19 and the “# Sites in HekCas9 cells (Example 5)” value is listed as 19.

B2: G000499: TTR sgRNA modified sequence, Human, SEQ ID No. 106; guide sequence of CR005303 (nucleic acid)
guide: mU*mG*mA*rArUrCrCrArArGrUrGrUrCrCrUrCrUrGrArGrUrUrUrUrArGrAmGmCmUmAmGmAmAmAmUmAmGmCrArArGrUrUrArArArArUrArArGrGrCrUrArGrUrCrCrGrUrUrArUrCrAmAmCmUmUmGmAmAmAmAmAmGmUmGmGmCmAmCmCmGmAmGmUmCmGmGmUmGmCmU*mU*mU*mU
Take B2: in data set [3], the “# Sites (off-target integration sites detected)” value is on record as 4 and the “# Sites in HekCas9 cells (Example 5)” value is reported as 4.

B3: G000481: TTR sgRNA modified sequence, Human, SEQ ID No. 88; guide sequence of CR003345 (nucleic acid)
guide: mU*mC*mU*rArGrArArCrUrUrUrGrArCrCrArUrCrArGrGrUrUrUrUrArGrAmGmCmUmAmGmAmAmAmUmAmGmCrArArGrUrUrArArArArUrArArGrGrCrUrArGrUrCrCrGrUrUrArUrCrAmAmCmUmUmGmAmAmAmAmAmGmUmGmGmCmAmCmCmGmAmGmUmCmGmGmUmGmCmU*mU*mU*mU
In the case of B3, in data set [3], the “# Sites (off-target integration sites detected)” value came out at 3 and the “# Sites in HekCas9 cells (Example 5)” value amounted to 3.

B4: G000494: TTR sgRNA modified sequence, Human, SEQ ID No. 101; guide sequence of CR003360 (nucleic acid)
guide: mG*mU*mG*rArGrUrCrUrGrGrArGrArGrCrUrGrCrArUrGrUrUrUrUrArGrAmGmCmUmAmGmAmAmAmUmAmGmCrArArGrUrUrArArArArUrArArGrGrCrUrArGrUrCrCrGrUrUrArUrCrAmAmCmUmUmGmAmAmAmAmAmGmUmGmGmCmAmCmCmGmAmGmUmCmGmGmUmGmCmU*mU*mU*mU
With B4, in data set [3], the “# Sites (off-target integration sites detected)” value came out at 4 and the “# Sites in HekCas9 cells (Example 5)” value is 4.

B5: G000480: TTR sgRNA modified sequence, Human, SEQ ID No. 87; guide sequence of CR003353 (nucleic acid)
guide: mA*mA*mA*rGrGrCrUrGrCrUrGrArUrGrArCrArCrCrUrGrUrUrUrUrArGrAmGmCmUmAmGmAmAmAmUmAmGmCrArArGrUrUrArArArArUrArArGrGrCrUrArGrUrCrCrGrUrUrArUrCrAmAmCmUmUmGmAmAmAmAmAmGmUmGmGmCmAmCmCmGmAmGmUmCmGmGmUmGmCmU*mU*mU*mU
With B5, in data set [3], the “# Sites (off-target integration sites detected)” value is reported as 11 and the “# Sites in HekCas9 cells (Example 5)” value came out at 11.

B6: G000482: TTR sgRNA modified sequence, Human, SEQ ID No. 89; guide sequence of CR003365 (nucleic acid)
guide: mU*mG*mU*rArGrArArGrGrGrArUrArUrArCrArArArGrGrUrUrUrUrArGrAmGmCmUmAmGmAmAmAmUmAmGmCrArArGrUrUrArArArArUrArArGrGrCrUrArGrUrCrCrGrUrUrArUrCrAmAmCmUmUmGmAmAmAmAmAmGmUmGmGmCmAmCmCmGmAmGmUmCmGmGmUmGmCmU*mU*mU*mU
As to B6, in data set [3], the “# Sites (off-target integration sites detected)” value is reported as 13 and the “# Sites in HekCas9 cells (Example 5)” value is 13.

B7: G000483: TTR sgRNA modified sequence, Human, SEQ ID No. 90; guide sequence of CR005298 (nucleic acid)
guide: mU*mC*mC*rArCrUrCrArUrUrCrUrUrGrGrCrArGrGrArGrUrUrUrUrArGrAmGmCmUmAmGmAmAmAmUmAmGmCrArArGrUrUrArArArArUrArArGrGrCrUrArGrUrCrCrGrUrUrArUrCrAmAmCmUmUmGmAmAmAmAmAmGmUmGmGmCmAmCmCmGmAmGmUmCmGmGmUmGmCmU*mU*mU*mU
As to B7, in data set [3], the “# Sites (off-target integration sites detected)” value was 5 and the “# Sites in HekCas9 cells (Example 5)” value is recorded as 5.

B8: G000486: TTR sgRNA modified sequence, Human, SEQ ID No. 93; guide sequence of CR003339 (nucleic acid)
guide: mA*mC*mA*rCrArArArUrArCrCrArGrUrCrCrArGrCrArGrUrUrUrUrArGrAmGmCmUmAmGmAmAmAmUmAmGmCrArArGrUrUrArArArArUrArArGrGrCrUrArGrUrCrCrGrUrUrArUrCrAmAmCmUmUmGmAmAmAmAmAmGmUmGmGmCmAmCmCmGmAmGmUmCmGmGmUmGmCmU*mU*mU*mU
In the case of B8, in data set [3], the “# Sites (off-target integration sites detected)” value is on record as 12 and the “# Sites in HekCas9 cells (Example 5)” value is 12.

B9: G000488: TTR sgRNA modified sequence, Human, SEQ ID No. 95; guide sequence of CR003346 (nucleic acid)
guide: mA*mA*mA*rGrUrUrCrUrArGrArUrGrCrUrGrUrCrCrGrGrUrUrUrUrArGrAmGmCmUmAmGmAmAmAmUmAmGmCrArArGrUrUrArArArArUrArArGrGrCrUrArGrUrCrCrGrUrUrArUrCrAmAmCmUmUmGmAmAmAmAmAmGmUmGmGmCmAmCmCmGmAmGmUmCmGmGmUmGmCmU*mU*mU*mU
In the case of B9, in data set [3], the “# Sites (off-target integration sites detected)” value was determined as 0 and the “# Sites in HekCas9 cells (Example 5)” value worked out at 0.
